# Counter-ions that a name gives are not always drawn. Like-named read-outs stand apart in the source and are kept apart here.
# Tested on: mouse cortical neuron cultures
Compound,% Dead cells (vehicle subtracted),other results
CCOP(=S)(OCC)Oc1ccc2c(C)c(Cl)c(=O)oc2c1 [Coumaphos],0.01959%,
CCCOC(=O)NCCCN(C)C [Propamocarb hydrochloride],-1.887%,
CCSC(=O)N(CC(C)C)CC(C)C [Butylate],,"% Dead cells (vehicle subtracted) (10 µM chemical, mouse cortical neuron cultures): 1.861%"
Milbemectin,1.383%,
COP(=O)(OC)OC(Br)C(Cl)(Cl)Br (stereo not drawn) [Naled],-0.709%,
CC1(C(=O)Nc2ccc(O)c(Cl)c2Cl)CCCCC1 [Fenhexamid],,"% Dead cells (vehicle subtracted) (mouse, 24 h, 10 µM): -0.6431%"
CCCCC(O)(Cn1cncn1)c1ccc(Cl)cc1Cl (stereo not drawn) [Hexaconazole],,"% Dead cells (vehicle subtracted) (mouse, 24 h, 10 µM): -2.068%"
COC(=O)c1ccccc1C(=O)OC [Dimethyl phthalate],1.872%,
CC1(C)C(C=C(Cl)Cl)C1C(=O)OCc1cccc(Oc2ccccc2)c1 (stereo not drawn) [Permethrin],-0.7739%,
CC(Oc1ccc(Cl)cc1Cl)C(=O)O (stereo not drawn),-0.3394%,
COC(=O)C=C(C)OP(=O)(OC)OC,-2.439%,
O=[N+]([O-])NC1=NCCN1Cc1ccc(Cl)nc1 [Imidacloprid],,"% Dead cells (vehicle subtracted) (mouse, 24 h, 10 µM): -3.0763%"
CCc1ccc(C(=O)NN(C(=O)c2cc(C)cc(C)c2)C(C)(C)C)cc1 [Tebufenozide],-1.661%,
c1ccc(Nc2ccccc2)cc1 [Diphenylamine],,"% Dead cells (vehicle subtracted) (mouse, 24 h, 10 µM): 2.557%"
COP(=S)(OC)Oc1ccc([N+](=O)[O-])cc1 [Parathion-methyl],1.486%,
CCCN(CCC)c1c([N+](=O)[O-])cc(C(F)(F)F)c(N)c1[N+](=O)[O-] [Prodiamine],-0.1982%,
CCOCN(C(=O)CCl)c1c(C)cccc1CC [Acetochlor],,"% Dead cells (vehicle subtracted) (mouse, 24 h, 10 µM): 2.3535%"
CCc1cnc(C2=NC(C)(C(C)C)C(=O)N2)c(C(=O)O)c1 (stereo not drawn) [Imazethapyr],,"% Dead cells (vehicle subtracted) (mouse, 24 h, 10 µM): 4.704%"
O=c1n(Cl)c(=O)n(Cl)c(=O)n1Cl [Symclosene (Trichloro-s-triazinetrione)],4.474%,
COc1nc(C)nc(NC(=O)NS(=O)(=O)c2ccccc2C(=O)O)n1 [Metsulfuron (Ally)],1.078%,
COP(N)(=O)SC (stereo not drawn) [Methamidophos],-1.5388%,
CON(C)C(=O)Nc1ccc(Cl)c(Cl)c1 [Linuron],-0.9348%,
N#Cc1c[nH]cc1-c1cccc2c1OC(F)(F)O2 [Fludioxonil],-2.856%,

Compound,% Dead cells (vehicle subtracted),other results
COP(=S)(OC)Oc1ccc(SC)c(C)c1 [Fenthion],-0.5799%,
CC1(C)C(C=C(Cl)Cl)C1C(=O)OC(C#N)c1ccc(F)c(Oc2ccccc2)c1 (stereo not drawn) [Cyfluthrin (Baythroid)],-3.677%,
CCCCOC(=O)c1ccccc1C(=O)O,5.2539%,
CCOP(=S)(OCC)Oc1nc(Cl)n(C(C)C)n1 [Isazofos],-3.842%,
N#Cc1c(Cl)cccc1Cl [Dichlobenil],,"% Dead cells (vehicle subtracted) (mouse, 24 h, 10 µM): 8.856%"
Cc1nc(N(C)C)nc(OC(=O)N(C)C)c1C [Pirimicarb],-1.736%,
Cc1ccc(C(=O)c2ccccc2)cc1 [Methanone (4-Methylbenzophenone)],2.416%,
C=CCOC(=O)C(C)(C)OC(=O)c1cc(-n2c(=O)cc(C(F)(F)F)n(C)c2=O)ccc1Cl [Butafenacil],,"% Dead cells (vehicle subtracted) (mouse, 24 h, 10 µM): -4.681%"
CCOP(=S)(OCC)SCn1c(=O)oc2cc(Cl)ccc21 [Phosalone],3.318%,
CC(C)N1C(=O)N(c2ccccc2)CS/C1=N\C(C)(C)C [Buprofezin],,"% Dead cells (vehicle subtracted) (mouse, 24 h, 10 µM): -1.5902%"
O=C1C2CC=CCC2C(=O)N1SC(Cl)(Cl)Cl (stereo not drawn) [Captan],2.374%,
CCCCCOC(=O)COc1cc(N2C(=O)C3=C(CCCC3)C2=O)c(F)cc1Cl [Flumiclorac-pentyl],,"% Dead cells (vehicle subtracted) (mouse, 24 h, 10 µM): -0.6581%"
CC(C)N(C(=O)SCC(Cl)=C(Cl)Cl)C(C)C [Tri-allate],1.844%,
CC(C)(c1ccc(O)cc1)c1ccc(O)cc1.CC(C)(c1ccc(O)cc1)c1ccc(O)cc1,0.9627%,
Clc1nc(Cl)nc(Nc2ccccc2Cl)n1,-1.572%,
CNC(=S)[S-].O.O.[Na+] [Metam-sodium hydrate],-1.491%,
Clc1ccccc1-c1nnc(-c2ccccc2Cl)nn1 [Clofentezine],0.4977%,
CC(C)N1C(=O)c2ccccc2NS1(=O)=O [Bentazone],-0.5905%,
CN(C)C(=O)Nc1cccc(C(F)(F)F)c1 [Fluometuron],,"% Dead cells (vehicle subtracted) (mouse, 24 h, 10 µM): 0.2278%"
CCCN(CCC)c1c([N+](=O)[O-])cc(C(F)(F)F)cc1[N+](=O)[O-] [Trifluralin],0.2689%,
CC(Oc1cccc(Cl)c1)C(=O)O (stereo not drawn) [Cloprop],-3.007%,
CCCCC(CC)COC(=O)c1ccccc1C(=O)OCC(CC)CCCC (stereo not drawn) [Diethylhexyl phthalate (DEHP)],-0.2848%,
FC(F)C(F)(F)OCC(Cn1cncn1)c1ccc(Cl)cc1Cl (stereo not drawn) [Tetraconazole],,"% Dead cells (vehicle subtracted) (mouse, 24 h, 10 µM): 2.833%"

Compound,% Dead cells (vehicle subtracted),other results
CCCN(CCOc1c(Cl)cc(Cl)cc1Cl)C(=O)n1ccnc1 [Prochloraz],-2.048%,
C[C@@H]1[C@@H](c2ccc(Cl)cc2)SC(=O)N1C(=O)NC1CCCCC1 [Hexythiazox],0.5871%,
Clc1cccc(C(Cl)(Cl)Cl)n1 [Nitrapyrin],,"% Dead cells (vehicle subtracted) (mouse, 24 h, 10 µM): 0.473%"
Cc1cc(C2CC2)nc(Nc2ccccc2)n1 [Cyprodinil],,"% Dead cells (vehicle subtracted) (mouse, 24 h, 10 µM): -6.385%"
CNC(=O)CSP(=S)(OC)OC [Dimethoate],-3.6%,
COP(=O)(OC)OC=C(Cl)Cl [Dichlorvos],0.4159%,
CNC(=O)Oc1ccccc1OC(C)C [Propoxur],0.5409%,
CCOP(=S)(OCC)SCCSCC [Disulfoton],2.557%,
C#CC(C)(C)NC(=O)c1cc(Cl)cc(Cl)c1 [Propyzamide],1.57%,
CCCCCCC(C)OC(=O)COc1nc(F)c(Cl)c(N)c1Cl (stereo not drawn) [Fluroxypyr-meptyl],-1.2099%,
Nc1nc(N)nc(NC2CC2)n1 [Cyromazine],,"% Dead cells (vehicle subtracted) (mouse, 24 h, 10 µM): -4.3436%"
CC(C)C1(C)N=C(c2ncccc2C(=O)O)NC1=O (stereo not drawn) [Imazapyr],,"% Dead cells (vehicle subtracted) (mouse, 24 h, 10 µM): 1.122%"
COc1ccc(C(=CC(=O)N2CCOCC2)c2ccc(Cl)cc2)cc1OC [Dimethomorph],,"% Dead cells (vehicle subtracted) (mouse, 24 h, 10 µM): -1.666%"
CCOP(=S)(OCC)Oc1cc(C)nc(C(C)C)n1 [Diazinon],0.1738%,
CCNc1nc(N)nc(Cl)n1,1.813%,
CCOP(=O)(OCC)Oc1cc(C)nc(C(C)C)n1 [Diazoxon],-0.938%,
OC(c1ccc(Cl)cc1)(c1cncnc1)c1ccccc1Cl (stereo not drawn) [Fenarimol],-1.829%,
Oc1cc(Cl)ccc1Oc1ccc(Cl)cc1Cl [Triclosan],0.6048%,
Oc1ccc(Cl)cc1Cc1ccccc1 [Clorophene],2.359%,
Cc1c(COC(=O)[C@@H]2[C@H](/C=C(\Cl)C(F)(F)F)C2(C)C)cccc1-c1ccccc1 (racemic) [Bifenthrin],0.2358%,
CCOP(=O)(SC(C)CC)N1CCSC1=O (stereo not drawn) [Fosthiazate],-0.4742%,
Cc1ccc(-c2c(Cl)nc(C#N)n2S(=O)(=O)N(C)C)cc1 [Cyazofamid],,"% Dead cells (vehicle subtracted) (mouse, 24 h, 10 µM): -1.678%"
CCCCOCN(C(=O)CCl)c1c(CC)cccc1CC [Butachlor],,"% Dead cells (vehicle subtracted) (mouse, 24 h, 10 µM): 0.2625%"

Compound,% Dead cells (vehicle subtracted),other results
COc1ccc(-c2ccccc2)cc1NNC(=O)OC(C)C [Bifenazate],,"% Dead cells (vehicle subtracted) (mouse, 24 h, 10 µM): 0.1333%"
CCOC(=O)C(C)Oc1ccc(Oc2cnc3cc(Cl)ccc3n2)cc1 (stereo not drawn) [Quizalofop-ethyl],,"% Dead cells (vehicle subtracted) (mouse, 24 h, 10 µM): -4.709%"
CCN(CC)C(=O)SCc1ccc(Cl)cc1 [Thiobencarb],,"% Dead cells (vehicle subtracted) (mouse, 24 h, 10 µM): -1.522%"
CC(C)(C)C(O)C(Oc1ccc(Cl)cc1)n1cncn1 (stereo not drawn) [Triadimenol],,"% Dead cells (vehicle subtracted) (mouse, 24 h, 10 µM): 2.51%"
CNC(=O)O/N=C/C(C)(C)SC [Aldicarb],-0.4371%,
COP(=S)(OC)Oc1ccc([N+](=O)[O-])c(C)c1 [Fenitrothion],-1.338%,
C#CCC1=C(C)C(OC(=O)C2C(C=C(C)C)C2(C)C)CC1=O (stereo not drawn) [Prallethrin],-0.1241%,
C/C(=N\C#N)N(C)Cc1ccc(Cl)nc1 [Acetamiprid],2.983%,
COC(=O)c1c(C(F)F)nc(C(F)(F)F)c(C2=NCCS2)c1CC(C)C [Thiazopyr],1.196%,
CCOP(=O)(NC(C)C)Oc1ccc(SC)c(C)c1 (stereo not drawn) [Fenamiphos],5.708%,
O=S1OCC2C(CO1)C1(Cl)C(Cl)=C(Cl)C2(Cl)C1(Cl)Cl (stereo not drawn) [Endosulfan],-0.8816%,
CCCN(CCC)C(=O)SCC [EPTC],3.437%,
S=C([S-])NCCNC(=S)[S-].[Mn+2] [Maneb],6.097%,
CCOC(=O)CC(SP(=S)(OC)OC)C(=O)OCC (stereo not drawn) [Malathion],-1.492%,
CC1(C)CCC(=Cc2ccc(Cl)cc2)C1(O)Cn1cncn1 (stereo not drawn) [Triticonazole],,"% Dead cells (vehicle subtracted) (mouse, 24 h, 10 µM): 0.8709%"
COC(=O)c1ccc(CNS(C)(=O)=O)cc1S(=O)(=O)NC(=O)Nc1nc(OC)cc(OC)n1 [Mesosulfuron methyl],-0.4756%,
CC(C)Oc1cc(-n2nc(C(C)(C)C)oc2=O)c(Cl)cc1Cl [Oxadiazon],,"% Dead cells (vehicle subtracted) (mouse, 24 h, 10 µM): 5.6039%"
CCN(CC)C(=O)C(C)Oc1cccc2ccccc12 (stereo not drawn) [Napropamide],,"% Dead cells (vehicle subtracted) (mouse, 24 h, 10 µM): -2.444%"
CCN(Cc1c(F)cccc1Cl)c1c([N+](=O)[O-])cc(C(F)(F)F)cc1[N+](=O)[O-] [Flumetralin],1.368%,
O=C(O)c1cc(Oc2ccc(C(F)(F)F)cc2Cl)ccc1[N+](=O)[O-] [Acifluorfen],3.873%,
CCCOc1nn(C(=O)[N-]S(=O)(=O)c2ccccc2C(=O)OC)c(=O)n1C.[Na+] [Propoxycarbazone-sodium],-1.764%,

# From PMC4821887, “Identification of chemicals that mimic transcriptional changes associated with autism, brain aging and neurodegeneration” (Nature Communications, 2016)
